The NIST ThermoML archive (doi:10.1021/je900468u)

Assays:
[1] = refractive index (Na D-line) (dimensionless); xn = mol fraction of the nth substance listed; details: 101 kPa, Liquid, Standard Abbe refractometry
[2] = xn = mol fraction of the nth substance listed; details: 101 kPa, Liquid; for speed of sound: Pulse-echo method

c1ccccc1 [benzene] + C1CCCCC1
x2 = 0
Details	mass density, [2] [kg/m3]	refractive index, [1]	speed of sound, [2] [m/s]
283.15 K	889.5	1.50765	1371
298.15 K	873.9	1.49774	1299

c1ccccc1 [benzene] + C1CCCCCCC1
298.15 K, x2 = 0
Details	mass density [kg/m3]	refractive index	speed of sound [m/s]
[1]	–	1.49774	–
[2]	873.6	–	1299

c1ccccc1 [benzene] + CC1CCCCC1
x2 = 0
Details	mass density, [2] [kg/m3]	refractive index, [1]	speed of sound, [2] [m/s]
283.15 K	889.5	1.50765	1371
298.15 K	873.6	1.49774	1299

C1CCCCC1 [cyclohexane] + CCc1ccccc1
x1 = 1
Details	mass density, [2] [kg/m3]	refractive index, [1]	speed of sound, [2] [m/s]
283.15 K	787.8	1.43193	1329
298.15 K	773.9	1.4236	1255

C1CCCCC1 [cyclohexane] + Cc1ccccc1
Details	mass density, [2] [kg/m3]	refractive index, [1]	speed of sound, [2] [m/s]
283.15 K, x1 = 0.0484	871	1.4988	1365
283.15 K, x1 = 0.099	865.8	1.49476	1360
283.15 K, x1 = 0.1997	855.8	1.48684	1351
283.15 K, x1 = 0.2973	846.1	1.47919	1344
283.15 K, x1 = 0.3975	836.6	1.47167	1337
283.15 K, x1 = 0.4999	827.3	1.46416	1331
283.15 K, x1 = 0.5881	819.6	1.45803	1328
283.15 K, x1 = 0.699	810.3	1.45054	1325
283.15 K, x1 = 0.7985	802.4	1.44407	1324
283.15 K, x1 = 0.8961	795.1	1.43794	1325
283.15 K, x1 = 0.9497	791.3	1.43489	1327
283.15 K, x1 = 1	–	–	1329
298.15 K, x1 = 0.0484	857.2	1.49021	1300
298.15 K, x1 = 0.099	852	1.48614	1294
298.15 K, x1 = 0.1997	842	1.47829	1285
298.15 K, x1 = 0.2973	832.3	1.47073	1276
298.15 K, x1 = 0.3975	822.8	1.4632	1269
298.15 K, x1 = 0.4999	813.4	1.4558	1263
298.15 K, x1 = 0.5881	805.7	1.44964	1258
298.15 K, x1 = 0.699	796.4	1.44216	1254
298.15 K, x1 = 0.7985	788.4	1.4358	1252
298.15 K, x1 = 0.8961	781.1	1.42971	1252
298.15 K, x1 = 0.9497	777.4	1.42663	1253
298.15 K, x1 = 1	773.9	1.4236	1255

C1CCCCC1 [cyclohexane] + c1ccccc1
Details	mass density, [2] [kg/m3]	refractive index, [1]	speed of sound, [2] [m/s]
283.15 K, x1 = 0.047	882.7	1.50275	1364
283.15 K, x1 = 0.0984	875.6	1.49741	1358
283.15 K, x1 = 0.1978	862.4	1.48772	1346
283.15 K, x1 = 0.2968	850.4	1.47886	1338
283.15 K, x1 = 0.3929	839.4	1.47071	1331
283.15 K, x1 = 0.4996	828.3	1.46247	1326
283.15 K, x1 = 0.6003	818.8	1.45532	1323
283.15 K, x1 = 0.7022	809.9	1.44865	1322
283.15 K, x1 = 0.7963	802.3	1.44324	1322
283.15 K, x1 = 0.8954	794.9	1.43781	1325
283.15 K, x1 = 0.9501	791.2	1.43453	1327
283.15 K, x1 = 1	787.8	1.43193	1329
298.15 K, x1 = 0.047	867.1	1.49298	1293
298.15 K, x1 = 0.0984	859.9	1.48771	1286
298.15 K, x1 = 0.1978	847	1.47808	1275
298.15 K, x1 = 0.2968	835.2	1.46965	1266
298.15 K, x1 = 0.3929	824.5	1.46157	1259
298.15 K, x1 = 0.4996	813.6	1.45354	1254
298.15 K, x1 = 0.6003	804.2	1.44654	1251
298.15 K, x1 = 0.7022	795.5	1.44001	1249
298.15 K, x1 = 0.7963	788	1.43431	1249
298.15 K, x1 = 0.8954	780.8	1.42891	1250
298.15 K, x1 = 0.9501	777.2	1.42611	1252
298.15 K, x1 = 1	773.9	1.4236	1255

C1CCCCCCC1 [cyclooctane] + CCc1ccccc1
298.15 K
Details	mass density, [2] [kg/m3]	refractive index, [1]	speed of sound, [2] [m/s]
x1 = 0.0465	860.4	1.49082	1321
x1 = 0.0962	858.3	1.48858	1322
x1 = 0.1961	854.1	1.48405	1327
x1 = 0.2944	850.3	1.47983	1332
x1 = 0.3975	846.6	1.47562	1339
x1 = 0.4959	843.4	1.47185	1346
x1 = 0.5935	840.4	1.46828	1353
x1 = 0.6929	837.6	1.46489	1361
x1 = 0.7954	835.2	1.4616	1370
x1 = 0.8899	833.2	1.45885	1379
x1 = 0.9497	832.1	1.45726	1385
x1 = 1	831.5	1.45598	1391

C1CCCCCCC1 [cyclooctane] + Cc1ccccc1
298.15 K
Details	mass density, [2] [kg/m3]	refractive index, [1]	speed of sound, [2] [m/s]
x1 = 0.0488	859.8	1.49121	1307
x1 = 0.1031	857	1.48824	1309
x1 = 0.2021	852.5	1.48313	1315
x1 = 0.2973	848.5	1.47861	1321
x1 = 0.4014	844.7	1.47411	1329
x1 = 0.5	841.5	1.47026	1337
x1 = 0.6005	838.7	1.46667	1347
x1 = 0.6976	836.4	1.46358	1356
x1 = 0.7981	834.4	1.46073	1367
x1 = 0.9007	832.8	1.45814	1378
x1 = 0.9494	832.1	1.45705	1384
x1 = 1	831.5	1.45598	1391

C1CCCCCCC1 [cyclooctane] + c1ccccc1
298.15 K
Details	mass density, [2] [kg/m3]	refractive index, [1]	speed of sound, [2] [m/s]
x1 = 0.0522	869.3	1.49384	1300
x1 = 0.102	865.4	1.49019	1301
x1 = 0.203	858.5	1.48375	1306
x1 = 0.3029	852.8	1.47827	1313
x1 = 0.4033	847.9	1.47346	1322
x1 = 0.5002	843.9	1.46955	1331
x1 = 0.5985	840.5	1.46607	1342
x1 = 0.7025	837.5	1.46284	1354
x1 = 0.7983	835.2	1.4603	1365
x1 = 0.8946	833.3	1.45808	1377
x1 = 0.9504	832.4	1.45694	1384
x1 = 1	831.5	1.45598	1391

CCc1ccccc1 [ethylbenzene] + C1CCCCC1
Details	mass density, [2] [kg/m3]	refractive index, [1]	speed of sound, [2] [m/s]
283.15 K, x2 = 0	875.7	1.50129	1382
283.15 K, x2 = 0.0476	871.4	1.49802	1377
283.15 K, x2 = 0.0982	866.9	1.49455	1372
283.15 K, x2 = 0.1983	857.9	1.48762	1364
283.15 K, x2 = 0.2982	848.9	1.48066	1356
283.15 K, x2 = 0.3973	840.1	1.47373	1349
283.15 K, x2 = 0.5016	830.7	1.46641	1342
283.15 K, x2 = 0.6008	821.8	1.45942	1337
283.15 K, x2 = 0.6995	813.2	1.45257	1332
283.15 K, x2 = 0.7998	804.4	1.44558	1329
283.15 K, x2 = 0.8967	796.3	1.43898	1328
283.15 K, x2 = 0.9451	792.3	1.43569	1328
298.15 K, x2 = 0	862.5	1.49304	1319
298.15 K, x2 = 0.0476	858.2	1.48992	1314
298.15 K, x2 = 0.0982	853.7	1.48645	1309
298.15 K, x2 = 0.1983	844.7	1.47947	1300
298.15 K, x2 = 0.2982	835.6	1.47245	1291
298.15 K, x2 = 0.3973	826.7	1.46552	1283
298.15 K, x2 = 0.5016	817.2	1.45815	1275
298.15 K, x2 = 0.6008	808.3	1.45116	1268
298.15 K, x2 = 0.6995	799.5	1.44433	1263
298.15 K, x2 = 0.7998	790.7	1.43731	1258
298.15 K, x2 = 0.8967	782.4	1.43062	1255
298.15 K, x2 = 0.9451	778.4	1.42735	1254

CCc1ccccc1 [ethylbenzene] + C1CCCCCCC1
298.15 K, x2 = 0
Details	mass density [kg/m3]	refractive index	speed of sound [m/s]
[1]	–	1.49304	–
[2]	862.5	–	1319

CCc1ccccc1 [ethylbenzene] + CC1CCCCC1
x2 = 0
Details	mass density, [2] [kg/m3]	refractive index, [1]	speed of sound, [2] [m/s]
283.15 K	875.7	1.50129	1382
298.15 K	862.5	1.49304	1319

CC1CCCCC1 [methylcyclohexane] + CCc1ccccc1
Details	mass density, [2] [kg/m3]	refractive index, [1]	speed of sound, [2] [m/s]
283.15 K, x1 = 0.0494	870.3	1.49728	1376
283.15 K, x1 = 0.0975	865.2	1.49353	1369
283.15 K, x1 = 0.1983	854.6	1.4855	1356
283.15 K, x1 = 0.2981	844.4	1.47786	1345
283.15 K, x1 = 0.4008	834.1	1.47018	1333
283.15 K, x1 = 0.5005	824.2	1.46281	1323
283.15 K, x1 = 0.6001	814.6	1.45566	1313
283.15 K, x1 = 0.7006	805.2	1.44856	1304
283.15 K, x1 = 0.7952	796.4	1.44194	1297
283.15 K, x1 = 0.8949	787.3	1.43542	1289
283.15 K, x1 = 0.9495	782.4	1.43163	1285
283.15 K, x1 = 1	777.9	1.42833	1281
298.15 K, x1 = 0.0494	857.2	1.48923	1312
298.15 K, x1 = 0.0975	852.1	1.48542	1305
298.15 K, x1 = 0.1983	841.5	1.47754	1292
298.15 K, x1 = 0.2981	831.2	1.46988	1280
298.15 K, x1 = 0.4008	820.9	1.46219	1268
298.15 K, x1 = 0.5005	811	1.45484	1258
298.15 K, x1 = 0.6001	801.4	1.44771	1247
298.15 K, x1 = 0.7006	791.9	1.44068	1236
298.15 K, x1 = 0.7952	783.1	1.43414	1230
298.15 K, x1 = 0.8949	774.2	1.42751	1222
298.15 K, x1 = 0.9495	769.3	1.4239	1218
298.15 K, x1 = 1	765.1	1.42062	1215
